These are literature values, as cited in patent US20070297988A1, “Optical probes for in vivo imaging” (priority 2006, published 2007).

For series [1] the following is noted: degradation accelerated by light and heat.
The conditions of series [2]: administered intravenously.

For the compound `CC1(C)C(/C=C/C=C/C=C/C=C2\N(CCCCS(=O)(=O)O)c3ccc4ccccc4c3C2(C)C)=[N+](CCCCS(=O)(=O)[O-])c2ccc3ccccc3c21` [ICG, indocyanine green], the “stability in aqueous solution” value in series [1] was “degraded in aqueous solution”. Moreover, in series [2], the plasmatic half-life was 2 to 4 min and the protein binding entry is “extensive protein binding”.
